Series [1] in a line: signs of drug toxicity during the in-vivo tests. Particulars: during the in-vivo tests in mice. On the procedure: (§1) a. Sub-cutanvenous administration: Groups of mice were infected inter peritoneally with Escherichia coli JT39. At 1 and 5 hours post infection the mice were treated with amoxycillin (Amox.) or with amoxycillin and synergist. The solutions were made up in phosphate buffer. The results were as follows:
(§2) b. Oral administration: Groups of mice were infected inter peritoneally with Escherichia coli JT39. At 1, 3 and 5 hours post-infection the mice were treated with amoxycillin or with amoxycillin and synergist. The solutions were made up in phosphate buffer.

In series [2] the test system is gram negative bacteria such as Escherichia and Klebsiella and gram positive bacteria such as Staphylococcus. The series is described as follows: summary of synergism with penicillins. Particulars: against gram negative and gram positive bacteria. On the procedure: as §1, §2
For another series, the system named is Escherichia coli JT 39. In words: CD50 in intraperitoneal Escherichia coli JT 39 infection in mice, sub-cutaneous dosing (Demonstration 2). In kind it is in vivo, mice infected with Escherichia coli. As to conditions: with amoxycillin, E. coli JT 39 infection in mice. On the procedure: b. […] Dosing was sub-cutaneous and 1 and 5 hours post infection.
In the next series the test system is Kleb. E 70. In words: microliter MIC test, Kleb. E 70. In kind it is cell-based, Klebsiella. As to the method:
(§3) a. The antibacterial and synergistic activity of the title compound (referred to as "Synergist" in the Table) was determined by a conventional microliter method.

A further series concerns E. Coli JT 410. The series is described as follows: microliter MIC test, E. coli JT 410. The series is classed as cell-based, Escherichia coli. On the procedure: as §3
The next series has as its system Proteus C 889. In words: microliter MIC test, Proteus C 889. In kind it is cell-based. Particulars: for MIC of ampicillin with title compound: trailing end point. As to the method: as §3
The next series deals with Staph. Russell. In words: microliter MIC test, Staph. Russell. The series is classed as cell-based, Staphylococcus. As to the method:
as §3

We go through 3 compounds from US4426377A, “Clavulanic acid derivatives their preparation and use” (Beecham Group Limited, priority 1977, dated 1984).

Regarding `O=C1CC(OC/C=C2\O[C@@H]3CC(=O)N3[C@H]2C(=O)O)N1` (some centres unmarked) [Example 2, Sodium 9-O-(azetidin-2'-on-4'-yl)clavulanate], the “signs of drug toxicity” value in series [1] is listed as “No signs of drug toxicity were observed”. In addition, in series [2], the “synergism with penicillins such as amoxycillin” value is “effective synergist for penicillins such as amoxycillin against gram negative bacteria such as Escherichia and Klebsiella and gram positive bacteria such as Staphylococcus”.

Regarding `CC(NC=O)OC/C=C1\O[C@@H]2CC(=O)N2[C@H]1C(=O)O` (some centres unmarked) [Example 9, Lithium 9-O-(1-formamidoethyl)clavulanate], in the series on Escherichia coli JT 39, the “effect on the effectiveness of amoxycillin” value is on record as “found to enhance the effectiveness of amoxycillin”.

On to `NCC(=O)NCOCC=C1OC2CC(=O)N2C1C(=O)O` (centres unmarked) [Example 11, 9-O-(Glycylaminomethyl)clavulanic acid], for which the “MIC of ampicillin with title compound/synergist” value in the series with Kleb. E 70 (Amp. + 1 μg/ml of the compound) was 6.25 µg/mL; in the series with Kleb. E 70 (Amp. + 5 μg/ml of the compound), 1.5 µg/mL; in the series with E. Coli JT 410 (Amp. + 5 μg/ml of the compound), 62.5 µg/mL; in the series with Staph. Russell (Amp. + 1 μg/ml of the compound) it was 1.25 µg/mL; in the series on Staph. Russell (Amp. + 5 μg/ml of the compound) it was 0.15 µg/mL. The MIC in the series with Kleb. E 70 (alone) amounted to 62.5 µg/mL; with E. Coli JT 410 (alone), 62.5 µg/mL; in the series on Proteus C 889 (alone), 250 µg/mL; in the series on Staph. Russell (alone), 8 µg/mL. Besides, the “MIC of ampicillin with title compound” value with Proteus C 889 (Amp. + 1 μg/ml of the compound) came to 8 µg/mL; in the series with Proteus C 889 (Amp. + 5 μg/ml of the compound), 2 µg/mL.

As usually defined, the MIC is the least concentration at which growth counts as inhibited.
